# Patent publication US20130029962A1, “Substituted Heteroaromatic Pyrazole-Containing Carboxamide and Urea Compounds as Vanilloid Receptor Ligands” (Gruenenthal GmbH, priority 2011, published 2013)
# Target: T1, vanilloid receptor 1 (VR1/TRPV1 receptor) (Homo sapiens, UniProt Q8NER1)
# T1 construct: expressed in transfected cells; host or cells: CHO K1
# Test: Functional testing on the vanilloid receptor 1 (VR1/TRPV1): FLIPR Ca2+ influx assay, displacement of capsaicin
# Type: cell-based, human being
# Design: key to mode of action at VR1/TRPV1 (AG, pAG, NE), Cap: AG=agonist; NE=no effect; pAG=partial agonist
# Conditions: for Ki: capsaicin (Cap) as stimulus, Ki from IC50 by Cheng-Prusoff, read-out: (f) Ki (human being) [nM] Cap; for inhibition at 5 µM: read-out: inhibition (as a percentage) at the concentration after @, Cap
# Experimental: Furthermore, preference may be given to compounds according to the invention that cause a 50 percent displacement of capsaicin, which is present at a concentration of 100 nM, in a FLIPR assay with CHO K1 cells which were transfected with the human VR1 gene at a concentration of less than 2,000 nM, preferably less than 1,000 nM, particularly preferably less than 300 nM, most particularly preferably less than 100 nM, even more preferably less than 75 nM, additionally preferably less than 50 nM, most preferably less than 10 nM.
# In the process, the Ca^2+ influx is quantified in the FLIPR assay with the aid of a Ca^2+-sensitive dye (type Fluo-4, Molecular Probes Europe BV, Leiden, the Netherlands) in a fluorescent imaging plate reader (FLIPR, Molecular Devices, Sunnyvale, USA), as described hereinafter. […]
# The number of cells in the suspension is set to 3×10^5 per mL and 150 μL of this suspension are in each case introduced into a recess in the cell culture plates coated as described hereinbefore. In the incubator the plates are left for two to three days at 37° C., 5% by volume of CO2 and 95% relative humidity. Subsequently, the cells are loaded with 2 μM of Fluo-4 and 0.01% by volume of Pluronic F127 (Molecular Probes Europe BV, Leiden, the Netherlands) in HBSS buffer (Hank's buffered saline solution, Gibco Invitrogen GmbH, Karlsruhe, Germany) for 30 min at 37° C., washed 3 times with HBSS buffer and after further incubation for 15 minutes at room temperature used for Ca^2+ measurement in a FLIPR assay. The Ca^2+-dependent fluorescence is in this case measured before and after the addition of substances (λex=488 nm, λem=540 nm). Quantification is carried out by measuring the highest fluorescence intensity (FC, fluorescence counts) over time.
# The FLIPR protocol consists of 2 substance additions. First the compounds to be tested (10 μM) are pipetted onto the cells and the Ca^2+ influx is compared with the control (capsaicin 10 μM). This provides the result in % activation based on the Ca^2+ signal after the addition of 10 μM of capsaicin (CP). After 5 minutes' incubation, 100 nM of capsaicin are applied and the Ca^2+ influx is also determined. Desensitising agonists and antagonists lead to suppression of the Ca^2+ influx. The % inhibition is calculated compared to the maximum achievable inhibition with 10 μM of capsazepine. Triple analyses (n=3) are carried out and repeated in at least 3 independent experiments (N=4).
# Starting from the percentage displacement caused by different concentrations of the compounds to be tested of general formula I, IC50 inhibitory concentrations which cause a 50-percent displacement of capsaicin were calculated. Ki values for the test substances were obtained by conversion by means of the Cheng-Prusoff equation (Cheng, Prusoff; Biochem. Pharmacol. 22, 3099-3108, 1973).
# The affinity of the compounds according to the invention for the vanilloid receptor 1 (VR1/TRPV1 receptor) was determined as described above (pharmacological method I).
# [1] = 5 μM compound, capsaicin (Cap), human being
# T1 sequence (Q8NER1 whole entry): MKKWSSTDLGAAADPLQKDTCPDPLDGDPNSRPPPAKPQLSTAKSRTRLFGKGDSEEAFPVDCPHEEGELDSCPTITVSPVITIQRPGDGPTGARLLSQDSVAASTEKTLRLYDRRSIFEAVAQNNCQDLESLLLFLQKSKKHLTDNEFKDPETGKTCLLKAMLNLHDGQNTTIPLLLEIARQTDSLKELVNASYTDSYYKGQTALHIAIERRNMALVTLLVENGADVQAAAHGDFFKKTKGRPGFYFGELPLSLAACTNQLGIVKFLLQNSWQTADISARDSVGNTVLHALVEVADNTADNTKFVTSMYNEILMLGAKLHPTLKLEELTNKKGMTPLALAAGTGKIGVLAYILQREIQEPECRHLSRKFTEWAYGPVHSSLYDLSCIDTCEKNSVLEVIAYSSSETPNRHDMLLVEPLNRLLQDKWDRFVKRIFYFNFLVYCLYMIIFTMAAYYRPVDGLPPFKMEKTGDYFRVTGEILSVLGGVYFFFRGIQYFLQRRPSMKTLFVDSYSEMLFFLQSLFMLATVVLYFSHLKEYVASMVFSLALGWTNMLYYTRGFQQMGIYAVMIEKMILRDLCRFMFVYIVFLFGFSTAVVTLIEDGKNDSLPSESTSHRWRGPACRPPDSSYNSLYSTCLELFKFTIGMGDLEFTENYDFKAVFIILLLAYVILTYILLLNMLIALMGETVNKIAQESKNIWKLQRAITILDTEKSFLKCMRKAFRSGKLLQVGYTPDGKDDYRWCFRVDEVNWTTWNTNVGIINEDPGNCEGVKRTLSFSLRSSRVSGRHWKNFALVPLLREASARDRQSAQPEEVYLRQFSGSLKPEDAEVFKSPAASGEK
Ki,Compound,further results
31 nM,"CC(C)(C)c1cc(CNC(=O)Nc2ccc(C(N)=O)nc2)n(-c2cccc(Cl)c2)n1 [Example 25, 5-(3-((3-tert-butyl-1-(3-chlorophenyl)-1H-pyrazol-5-yl)methyl)ureido)picolinamide]",–
61 nM,"CC(C(=O)NCc1cc(C(F)(F)F)nn1-c1cccc(Cl)c1)c1ccc(CNS(C)(=O)=O)nc1 (centres unmarked) [Example 27, N-((1-(3-chlorophenyl)-3-(trifluoromethyl)-1H-pyrazol-5-yl)methyl)-2-(6-(methylsulfonamidomethyl)pyridin-3-yl)propanamide]",–
1 nM,"CC(C(=O)NCc1cc(C(F)(F)F)nn1-c1cccc(Cl)c1)c1ccc(CO)nc1 (centres unmarked) [Example 30, N-((1-(3-chlorophenyl)-3-(trifluoromethyl)-1H-pyrazol-5-yl)methyl)-2-(6-(hydroxymethyl)pyridin-3-yl)propanamide]",–
8 nM,"CC(C(=O)NCc1cc(C(F)(F)F)nn1-c1cccc(Cl)c1)c1ccc(CCO)nc1 (centres unmarked) [Example 51, N-((1-(3-chlorophenyl)-3-(trifluoromethyl)-1H-pyrazol-5-yl)methyl)-2-(6-(2-hydroxyethyl)pyridin-3-yl)propanamide]",–
44 nM,"CC(C(=O)NCc1cc(C(F)(F)F)nn1-c1cccc(Cl)c1)c1ccc(COCCO)nc1 (centres unmarked) [Example 53, N-((1-(3-chlorophenyl)-3-(trifluoromethyl)-1H-pyrazol-5-yl)methyl)-2-(6-((2-hydroxyethoxy)methyl)pyridin-3-yl)propanamide]",–
23 nM,"CC(C(=O)NCc1cc(C(F)(F)F)nn1-c1cccc(Cl)c1)c1ccc(C(N)=O)nc1 (centres unmarked) [Example 55, 5-(1-((1-(3-chlorophenyl)-3-(trifluoromethyl)-1H-pyrazol-5-yl)methylamino)-1-oxopropan-2-yl)picolinamide]",–

# Second part, the molecule before the results:
Compound,Ki,further results
"O=C(Cc1cncnc1)NCc1cc(C(F)(F)F)nn1-c1cccc(Cl)c1 [Example 16, N-((1-(3-chlorophenyl)-3-(trifluoromethyl)-1H-pyrazol-5-yl)methyl)-2-(pyrimidin-5-yl)acetamide]",77 nM,–
"O=C(Cc1ccc(Cl)nc1)NCc1cc(C(F)(F)F)nn1-c1cccc(Cl)c1 [Example 17, N-((1-(3-chlorophenyl)-3-(trifluoromethyl)-1H-pyrazol-5-yl)methyl)-2-(6-chloropyridin-3-yl)acetamide]",29 nM,–
"O=C(NCc1cc(C(F)(F)F)nn1-c1cccc(Cl)c1)Nc1cncc(F)c1 [Example 18, 1-((1-(3-chlorophenyl)-3-(trifluoromethyl)-1H-pyrazol-5-yl)methyl)-3-(5-fluoropyridin-3-yl)urea]",39 nM,–
"Cc1ncc(NC(=O)NCc2cc(C(F)(F)F)nn2-c2cccc(Cl)c2)cn1 [Example 19, 1-((1-(3-chlorophenyl)-3-(trifluoromethyl)-1H-pyrazol-5-yl)methyl)-3-(2-methylpyrimidin-5-yl)urea]",–,inhibition at 5 µM [1]: 45%
"CS(=O)(=O)CCc1ccc(NC(=O)NCc2cc(C(F)(F)F)nn2-c2cccc(Cl)c2)cn1 [Example 21, 1-((1-(3-chlorophenyl)-3-(trifluoromethyl)-1H-pyrazol-5-yl)methyl)-3-(6-(2-(methylsulfonyl)ethyl)pyridin-3-yl)urea]",43 nM,–
"CC(C)(C)c1cc(CNC(=O)Nc2cnc(CCS(C)(=O)=O)c(F)c2)n(-c2cccc(Cl)c2)n1 [Example 22, 1-((3-tert-butyl-1-(3-chlorophenyl)-1H-pyrazol-5-yl)methyl)-3-(5-fluoro-6-(2-(methylsulfonyl)ethyl)pyridin-3-yl)urea]",28 nM,–
"CS(=O)(=O)CCc1ncc(NC(=O)NCc2cc(C(F)(F)F)nn2-c2cccc(Cl)c2)cc1F [Example 23, 1-((1-(3-chlorophenyl)-3-(trifluoromethyl)-1H-pyrazol-5-yl)methyl)-3-(5-fluoro-6-(2-(methylsulfonyl)ethyl)pyridin-3-yl)urea]",29 nM,–
"CS(=O)(=O)CCc1ncc(NC(=O)NCc2cc(C3CC3)nn2-c2cccc(Cl)c2)cc1F [Example 24, 1-((1-(3-chlorophenyl)-3-cyclopropyl-1H-pyrazol-5-yl)methyl)-3-(5-fluoro-6-(2-(methylsulfonyl)ethyl)pyridin-3-yl)urea]",46 nM,–
"NC(=O)c1ccc(NC(=O)NCc2cc(C(F)(F)F)nn2-c2cccc(Cl)c2)cn1 [Example 26, 5-(3-((1-(3-chlorophenyl)-3-(trifluoromethyl)-1H-pyrazol-5-yl)methyl)ureido)picolinamide]",–,inhibition at 5 µM [1]: 44%
"O=C(NCc1cc(C(F)(F)F)nn1-c1cccc(Cl)c1)Nc1ccc(CO)nc1 [Example 32, 1-((1-(3-chlorophenyl)-3-(trifluoromethyl)-1H-pyrazol-5-yl)methyl)-3-(6-(hydroxymethyl)pyridin-3-yl)urea]",32 nM,–
"O=C(NCc1cc(C(F)(F)F)nn1-c1cccc(F)c1)Nc1ccc(CO)nc1 [Example 33, 1-((1-(3-fluorophenyl)-3-(trifluoromethyl)-1H-pyrazol-5-yl)methyl)-3-(6-(hydroxymethyl)pyridin-3-yl)urea]",–,inhibition at 5 µM [1]: 41%
"COc1ccc(-n2nc(C(F)(F)F)cc2CNC(=O)Nc2ccc(CO)nc2)cc1F [Example 35, 1-((1-(3-fluoro-4-methoxyphenyl)-3-(trifluoromethyl)-1H-pyrazol-5-yl)methyl)-3-(6-(hydroxymethyl)pyridin-3-yl)urea]",–,"mode of action at VR1/TRPV1 (AG, pAG, NE), Cap (capsaicin (Cap), human being): NE"
"Cc1cccc(-n2nc(C(F)(F)F)cc2CNC(=O)Nc2ccc(CO)nc2)c1 [Example 36, 1-(6-(hydroxymethyl)pyridin-3-yl)-3-((1-m-tolyl-3-(trifluoromethyl)-1H-pyrazol-5-yl)methyl)urea]",101 nM,–
"COc1ccc(-n2nc(C(F)(F)F)cc2CNC(=O)Nc2ccc(CO)nc2)cc1C [Example 37, 1-(6-(hydroxymethyl)pyridin-3-yl)-3-((1-(4-methoxy-3-methylphenyl)-3-(trifluoromethyl)-1H-pyrazol-5-yl)methyl)urea]",–,inhibition at 5 µM [1]: 41%
"O=C(NCc1cc(C(F)(F)F)nn1-c1cccc(Cl)c1)Nc1cnc(CO)c(F)c1 [Example 50, 1-((1-(3-chlorophenyl)-3-(trifluoromethyl)-1H-pyrazol-5-yl)methyl)-3-(5-fluoro-6-(hydroxymethyl)pyridin-3-yl)urea]",24 nM,–
"O=C(NCc1cc(C(F)(F)F)nn1-c1cccc(Cl)c1)Nc1ccc(CCO)nc1 [Example 52, 1-((1-(3-chlorophenyl)-3-(trifluoromethyl)-1H-pyrazol-5-yl)methyl)-3-(6-(2-hydroxyethyl)pyridin-3-yl)urea]",–,inhibition at 5 µM [1]: 45%
"O=C(NCc1cc(C(F)(F)F)nn1-c1cccc(F)c1)Nc1ccc(C2CCOCC2)nc1 [Example 54, 1-((1-(3-fluorophenyl)-3-(trifluoromethyl)-1H-pyrazol-5-yl)methyl)-3-(6-(tetrahydro-2H-pyran-4-yl)pyridin-3-yl)urea]",–,"mode of action at VR1/TRPV1 (AG, pAG, NE), Cap (capsaicin (Cap), human being): NE"
"CC(C(=O)NCc1cc(C(C)(C)C)nn1-c1cccc(Cl)c1)c1ccc(C(N)=O)nc1 (centres unmarked) [Example 56, 5-(1-((3-tert-butyl-1-(3-chlorophenyl)-1H-pyrazol-5-yl)methylamino)-1-oxopropan-2-yl)picolinamide]",–,"inhibition at 5 µM [1]: 77%; mode of action at VR1/TRPV1 (AG, pAG, NE), Cap (capsaicin (Cap), human being): AG"
CC(C(=O)NCc1cc(C(F)(F)F)nn1-c1cccc(Cl)c1)c1ccc(C(=O)Nc2ccccc2)nc1 (centres unmarked) [Example 57],–,"inhibition (as a percentage) at the concentration after @, Cap [1]: 60%@5 μM"
